Measured values published in ChEMBL document CHEMBL3351429, “Phenyl substituted 4-hydroxypyridazin-3(2H)-ones and 5-hydroxypyrimidin-4(3H)-ones: inhibitors of influenza A endonuclease” (J Med Chem, 2014).

Experiment: Inhibition of influenza A virus H1N1 endonuclease (1 to 204 residues) expressed in Escherichia coli BL21 (RIL) using (6-FAM)-TGGCAATATCAGCTCCACA(MGBNFQ) single-stranded DNA probe by fluorimetry

Compound	IC50
O=c1[nH]nc(-c2ccc(-c3nnn[nH]3)cc2)cc1O	3000 nM
O=c1[nH]c(-c2cccc(-c3ccccc3)c2)ncc1O	400 nM
N#Cc1cccc(-c2ncc(O)c(=O)[nH]2)c1	250 nM
O=c1[nH]cnc(-c2ccc(F)cc2)c1O	> 193000 nM
N#Cc1ccc(-c2ncc(O)c(=O)[nH]2)cc1	520 nM
O=c1[nH]c(-c2cccc(-c3nnn[nH]3)c2)ncc1O	480 nM
N#Cc1ccc(-c2cc(O)c(=O)[nH]n2)cc1	9300 nM
O=c1[nH]nc(-c2ccc(F)cc2)cc1O	6000 nM
O=c1[nH]c(-c2ccc(-c3nnn[nH]3)cc2)ncc1O	150 nM
O=c1[nH]c(-c2ccc(F)cc2)ncc1O	580 nM
O=c1[nH]cc(-c2ccc(F)cc2)cc1O	730 nM
O=c1[nH]c(-c2ccccc2-c2ccccc2)ncc1O	1100 nM
O=c1[nH]cc(-c2ccc(F)cc2)[nH]c1=O	59000 nM
O=c1[nH]c(-c2cccc(F)c2)ncc1O	1560 nM
O=c1[nH]c(-c2ccccc2F)ncc1O	1670 nM
O=c1[nH]ncc(-c2ccc(F)cc2)c1O	177000 nM
O=c1[nH]c(-c2ccc(-c3ccccc3)cc2)ncc1O	2240 nM
O=c1[nH]c(-c2ccc(F)cc2)ccc1O	430 nM
